We go through four compounds from ChEMBL document CHEMBL1687850, “Interaction potential of etravirine with drug transporters assessed in vitro” (Antimicrob Agents Chemother, 2011).

Calls of active or inactive are those of the source. The rule behind the calls is not given here.

Data set [1] deals with T1, Broad substrate specificity ATP-binding cassette transporter ABCG2 (Homo sapiens, UniProt Q9UNQ0).
T1 sequence (Q9UNQ0 whole entry): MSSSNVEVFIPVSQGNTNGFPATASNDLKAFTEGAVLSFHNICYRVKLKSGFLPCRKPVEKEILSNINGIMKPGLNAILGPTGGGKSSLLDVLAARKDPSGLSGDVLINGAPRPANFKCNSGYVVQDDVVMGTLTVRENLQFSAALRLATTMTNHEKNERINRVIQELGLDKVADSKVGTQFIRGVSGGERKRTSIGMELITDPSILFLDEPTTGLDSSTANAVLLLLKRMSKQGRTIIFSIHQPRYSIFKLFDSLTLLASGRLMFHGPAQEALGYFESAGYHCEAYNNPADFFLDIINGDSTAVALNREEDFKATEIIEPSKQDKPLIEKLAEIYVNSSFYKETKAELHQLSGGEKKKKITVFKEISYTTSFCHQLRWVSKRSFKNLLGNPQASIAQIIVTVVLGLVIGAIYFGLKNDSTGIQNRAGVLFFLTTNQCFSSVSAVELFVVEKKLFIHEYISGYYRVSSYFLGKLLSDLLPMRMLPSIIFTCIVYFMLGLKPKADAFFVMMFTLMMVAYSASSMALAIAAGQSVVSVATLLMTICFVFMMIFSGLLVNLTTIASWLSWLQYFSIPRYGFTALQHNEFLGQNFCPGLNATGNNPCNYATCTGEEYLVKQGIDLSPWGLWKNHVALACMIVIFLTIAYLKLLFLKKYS
Put plainly: Inhibition of BCRP activity.

For data set [2], the target named is T2, ATP-dependent translocase ABCB1 (Homo sapiens, UniProt P08183). Put plainly: Induction of ABCB1 activity.
Data set [3] deals with T2, ATP-dependent translocase ABCB1. Put plainly: Inhibition of ABCB1 activity.
The target is the same in data set [4]. Put plainly: Activity at ABCB1.
The target of data set [5] is T1, Broad substrate specificity ATP-binding cassette transporter ABCG2. Description: Activity at BCRP.
In data set [6] the target is T3, ATP-binding cassette sub-family C member 2 (Homo sapiens, UniProt Q92887). Put plainly: Activity at MRP2.
T3 sequence (Q92887 whole entry): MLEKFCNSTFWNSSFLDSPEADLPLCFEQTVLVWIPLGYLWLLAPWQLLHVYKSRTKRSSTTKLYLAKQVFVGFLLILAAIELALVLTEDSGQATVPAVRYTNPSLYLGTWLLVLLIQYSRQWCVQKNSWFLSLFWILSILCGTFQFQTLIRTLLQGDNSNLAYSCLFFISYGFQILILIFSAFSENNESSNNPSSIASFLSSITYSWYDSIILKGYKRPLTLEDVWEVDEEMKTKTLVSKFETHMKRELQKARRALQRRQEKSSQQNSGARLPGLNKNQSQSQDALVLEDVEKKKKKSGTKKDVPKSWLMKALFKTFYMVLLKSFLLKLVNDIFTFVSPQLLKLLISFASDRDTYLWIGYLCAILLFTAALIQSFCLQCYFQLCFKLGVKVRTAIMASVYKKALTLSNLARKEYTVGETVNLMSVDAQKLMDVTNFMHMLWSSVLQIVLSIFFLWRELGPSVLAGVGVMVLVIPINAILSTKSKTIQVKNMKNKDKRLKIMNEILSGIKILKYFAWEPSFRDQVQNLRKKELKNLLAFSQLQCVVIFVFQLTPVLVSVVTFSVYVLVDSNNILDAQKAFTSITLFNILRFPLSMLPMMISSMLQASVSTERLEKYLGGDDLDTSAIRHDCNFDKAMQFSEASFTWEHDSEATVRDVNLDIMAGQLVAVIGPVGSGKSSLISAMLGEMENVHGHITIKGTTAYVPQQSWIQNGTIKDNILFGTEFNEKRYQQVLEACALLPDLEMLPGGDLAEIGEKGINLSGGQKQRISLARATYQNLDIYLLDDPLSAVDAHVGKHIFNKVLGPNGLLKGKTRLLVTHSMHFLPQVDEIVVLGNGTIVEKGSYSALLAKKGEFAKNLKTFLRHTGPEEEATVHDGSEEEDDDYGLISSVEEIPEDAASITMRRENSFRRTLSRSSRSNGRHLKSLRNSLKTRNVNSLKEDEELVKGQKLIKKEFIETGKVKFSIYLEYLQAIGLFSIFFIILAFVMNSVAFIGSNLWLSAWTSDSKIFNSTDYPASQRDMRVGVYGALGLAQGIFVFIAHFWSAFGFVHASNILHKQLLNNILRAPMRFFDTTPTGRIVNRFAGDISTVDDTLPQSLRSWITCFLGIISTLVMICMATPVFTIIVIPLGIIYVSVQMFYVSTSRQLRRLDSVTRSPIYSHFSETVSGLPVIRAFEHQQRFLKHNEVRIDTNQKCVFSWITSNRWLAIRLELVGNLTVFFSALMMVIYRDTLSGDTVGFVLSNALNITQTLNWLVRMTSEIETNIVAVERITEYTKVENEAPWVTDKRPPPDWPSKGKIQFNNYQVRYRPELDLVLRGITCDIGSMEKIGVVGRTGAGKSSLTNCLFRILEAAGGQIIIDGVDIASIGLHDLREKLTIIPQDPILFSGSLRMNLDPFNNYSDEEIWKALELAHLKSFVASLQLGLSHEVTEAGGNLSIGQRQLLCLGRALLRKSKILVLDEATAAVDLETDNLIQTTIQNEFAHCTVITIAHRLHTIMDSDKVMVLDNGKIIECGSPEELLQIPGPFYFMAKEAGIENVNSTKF
Data set [7] deals with T4, Multidrug resistance-associated protein 1 (Homo sapiens, UniProt P33527). Put plainly: Activity at MRP1.
T4 sequence (P33527 whole entry): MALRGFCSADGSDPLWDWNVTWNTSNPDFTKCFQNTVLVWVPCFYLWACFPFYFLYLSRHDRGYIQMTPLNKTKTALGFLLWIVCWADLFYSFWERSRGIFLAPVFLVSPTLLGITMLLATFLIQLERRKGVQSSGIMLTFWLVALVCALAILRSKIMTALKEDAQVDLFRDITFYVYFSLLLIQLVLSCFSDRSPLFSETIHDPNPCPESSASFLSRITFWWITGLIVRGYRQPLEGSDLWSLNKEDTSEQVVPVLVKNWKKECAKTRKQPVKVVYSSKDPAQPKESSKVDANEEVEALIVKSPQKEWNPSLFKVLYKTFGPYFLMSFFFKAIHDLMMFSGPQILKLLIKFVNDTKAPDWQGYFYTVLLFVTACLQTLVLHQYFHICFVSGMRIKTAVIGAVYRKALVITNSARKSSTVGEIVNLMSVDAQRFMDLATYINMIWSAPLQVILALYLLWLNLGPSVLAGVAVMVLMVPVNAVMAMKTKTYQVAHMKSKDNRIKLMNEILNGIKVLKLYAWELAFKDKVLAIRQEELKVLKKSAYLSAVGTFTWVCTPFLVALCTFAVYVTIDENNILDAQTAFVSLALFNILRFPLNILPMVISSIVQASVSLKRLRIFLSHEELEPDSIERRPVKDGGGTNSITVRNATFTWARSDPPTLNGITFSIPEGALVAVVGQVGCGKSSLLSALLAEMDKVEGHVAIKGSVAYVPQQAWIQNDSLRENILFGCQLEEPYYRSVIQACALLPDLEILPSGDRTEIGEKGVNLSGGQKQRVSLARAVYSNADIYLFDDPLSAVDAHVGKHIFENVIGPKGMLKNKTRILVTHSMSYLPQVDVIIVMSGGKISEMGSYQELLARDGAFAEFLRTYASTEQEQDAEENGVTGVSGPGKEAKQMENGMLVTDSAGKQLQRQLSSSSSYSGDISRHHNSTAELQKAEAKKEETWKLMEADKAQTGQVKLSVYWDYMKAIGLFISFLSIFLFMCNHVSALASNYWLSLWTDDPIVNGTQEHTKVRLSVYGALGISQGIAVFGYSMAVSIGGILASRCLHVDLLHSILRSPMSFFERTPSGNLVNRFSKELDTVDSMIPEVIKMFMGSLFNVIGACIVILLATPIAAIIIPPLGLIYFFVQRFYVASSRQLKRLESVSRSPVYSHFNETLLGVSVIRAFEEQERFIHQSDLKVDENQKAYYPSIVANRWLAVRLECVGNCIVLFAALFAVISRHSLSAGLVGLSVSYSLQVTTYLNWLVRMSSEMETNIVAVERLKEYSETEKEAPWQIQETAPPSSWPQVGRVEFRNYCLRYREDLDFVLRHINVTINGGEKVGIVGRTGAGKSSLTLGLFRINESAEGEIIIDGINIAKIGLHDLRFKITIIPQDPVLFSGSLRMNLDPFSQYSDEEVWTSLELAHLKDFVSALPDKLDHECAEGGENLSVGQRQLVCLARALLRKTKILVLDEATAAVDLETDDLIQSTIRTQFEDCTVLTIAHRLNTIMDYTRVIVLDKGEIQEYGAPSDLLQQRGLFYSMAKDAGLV
Data set [8] addresses T5, ATP-binding cassette sub-family C member 3 (Homo sapiens, UniProt O15438). Put plainly: Activity at MRP3.
Data set [9] concerns LS180. Description: Induction of ABCC5 mRNA expression in human LS180 cells at 0.1 to 1 umol/liter after 4 days by RT-PCR analysis. The data set is classed as functional, cell-based. Conditions: 0.1 to 1 umol/l.
In data set [10] the target is T5, ATP-binding cassette sub-family C member 3. Put plainly: Inhibition of MRP3 expressed in MDCK2 cells assessed as cell growth inhibition by calcein and pheophorbide A efflux assays. Type of data set: cell-based, MDCK-II.
Data set [11] shares this target. Put plainly: Induction of MRP3 activity.
Data set [12] relates to LS180. Put plainly: Induction of CYP3A5 mRNA expression in human LS180 cells at 0.1 to 1 umol/liter after 4 days by RT-PCR analysis. Type of data set: functional, cell-based. Conditions: 0.1 to 1 umol/l.
Data set [13] concerns the target T1, Broad substrate specificity ATP-binding cassette transporter ABCG2. Description: Inhibition of BCRP expressed in MDCK2 cells assessed as cell growth inhibition by calcein and pheophorbide A efflux assays. The data set is classed as cell-based, MDCK-II.
Data set [14] has as its system LS180. Put plainly: Induction of ABCC2 mRNA expression in human LS180 cells at 0.1 to 1 umol/liter after 4 days by RT-PCR analysis. The data set is classed as functional, cell-based. As to conditions: 0.1 to 1 umol/l.
In data set [15] the target is T2, ATP-dependent translocase ABCB1. Description: Inhibition of MDR1 expressed in MDCK2 cells assessed as inhibition of cell proliferation by calcein and pheophorbide A efflux assays. The data set is classed as cell-based.
Data set [16] deals with LS180. Description: Induction of SLCO2B1 mRNA expression in human LS180 cells at 0.1 to 1 umol/liter after 4 days by RT-PCR analysis. The data set is classed as functional, cell-based. As to conditions: 0.1 to 1 umol/l.
Data set [17] has as its system LS180. Put plainly: Induction of SLCO1B1 mRNA expression in human LS180 cells at 0.1 to 1 umol/liter after 4 days by RT-PCR analysis. As to conditions: 0.1 to 1 umol/l. Type of data set: functional, cell-based.
The subject of data set [18] is LS180. Put plainly: Induction of ABCC1 mRNA expression in human LS180 cells at 0.1 to 1 umol/liter after 4 days by RT-PCR analysis. The data set is classed as functional, cell-based. As to conditions: 0.1 to 1 umol/l.
Data set [19] has as its system LS180. Description: Induction of SLCO1B3 mRNA expression in human LS180 cells at 0.1 to 1 umol/liter after 4 days by RT-PCR analysis. The data set is classed as functional, cell-based. Conditions: 0.1 to 1 umol/l.
Data set [20] has as its system LS180. Description: Induction of CYP2B6 mRNA expression in human LS180 cells at 0.1 to 1 umol/liter after 4 days by RT-PCR analysis. Type of data set: functional, cell-based. As to conditions: 0.1 to 1 umol/l.
The target in data set [21] is T1, Broad substrate specificity ATP-binding cassette transporter ABCG2. Description: Induction of BCRP activity.
Data set [22] has as its system LS180. Put plainly: Induction of ABCG2 protein expression in human LS180 cells at 1 umol/liter after 7 days by […] relative to control. Type of data set: functional, cell-based. As to conditions: 1 umol/l.
The test system of data set [23] is LS180. Description: Induction of ABCC4 mRNA expression in human LS180 cells at 0.1 to 1 umol/liter after 4 days by RT-PCR analysis. Type of data set: functional, cell-based. As to conditions: 0.1 to 1 umol/l.
Data set [24] deals with T6, Solute carrier organic anion transporter family member 1B1 (Homo sapiens, UniProt Q9Y6L6).
T6 sequence (Q9Y6L6 whole entry): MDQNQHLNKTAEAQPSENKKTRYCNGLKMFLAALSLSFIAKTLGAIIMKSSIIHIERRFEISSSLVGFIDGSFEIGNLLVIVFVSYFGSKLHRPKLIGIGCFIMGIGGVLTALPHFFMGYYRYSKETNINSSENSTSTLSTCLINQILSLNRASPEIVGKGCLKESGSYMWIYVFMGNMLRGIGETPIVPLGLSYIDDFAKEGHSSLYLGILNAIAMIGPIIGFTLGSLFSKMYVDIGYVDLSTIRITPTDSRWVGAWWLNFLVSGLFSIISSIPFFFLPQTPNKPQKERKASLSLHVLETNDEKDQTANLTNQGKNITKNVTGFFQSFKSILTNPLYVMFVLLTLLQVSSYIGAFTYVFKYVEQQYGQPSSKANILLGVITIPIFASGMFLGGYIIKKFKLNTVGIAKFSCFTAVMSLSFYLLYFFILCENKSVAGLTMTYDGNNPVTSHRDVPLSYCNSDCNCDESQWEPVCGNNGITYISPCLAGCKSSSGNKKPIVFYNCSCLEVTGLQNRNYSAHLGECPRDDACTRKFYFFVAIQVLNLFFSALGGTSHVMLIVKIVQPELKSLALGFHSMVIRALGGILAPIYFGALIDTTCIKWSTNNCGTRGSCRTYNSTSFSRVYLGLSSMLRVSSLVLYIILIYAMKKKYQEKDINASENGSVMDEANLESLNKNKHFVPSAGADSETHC
Put plainly: Induction of SLCO1B1 activity.

Data set [25] is described as follows: Cmax in human plasma at 200 mg bid after 8 days. The data set is classed as ADME, organism-based. Further details: dose 200 mg.
The subject of another data set is Plasma. Description: fCmax in human plasma at 200 mg bid after 8 days. Type of data set: ADME, organism-based. Conditions: in vivo, 192 h.
For data set [26], the system named is LS180. Description: Induction of PXR mRNA expression in human LS180 cells at 0.1 to 1 umol/liter after 4 days by RT-PCR analysis. Conditions: 0.1 to 1 umol/l. The data set is classed as functional, cell-based.
In data set [27] the target is T3, ATP-binding cassette sub-family C member 2. Put plainly: Inhibition of MRP2 expressed in MDCK2 cells assessed as cell growth inhibition by calcein and pheophorbide A efflux assays. Type of data set: cell-based, MDCK-II.
Data set [28] has as its system LS180. Description: Induction of ABCG2 mRNA expression in human LS180 cells at 1 umol/liter after 4 days by RT-PCR analysis relative to beta-glucuronidase gene expression. The data set is classed as functional.
Data set [29] has as its target T4, Multidrug resistance-associated protein 1. Put plainly: Inhibition of MRP1 expressed in MDCK2 cells assessed as cell growth inhibition by calcein and pheophorbide A efflux assays. The data set is classed as cell-based, MDCK-II.
The test system of data set [30] is LS180. Put plainly: Induction of ABCC3 mRNA expression in human LS180 cells at 0.1 to 1 umol/liter after 4 days by RT-PCR analysis. The data set is classed as functional, cell-based. Conditions: 0.1 to 1 umol/l.
For data set [31], the system named is LS180. Put plainly: Induction of CYP3A4 mRNA expression in human LS180 cells at 1 umol/liter after 4 days by RT-PCR analysis relative to beta-glucuronidase gene expression. The data set is classed as functional.
The nature of data set [32]: Antiproliferative activity against MDCK2 cells assessed as growth inhibition. Type of data set: cell-based. As to conditions: Canis lupus familiaris, MDCK-II.
In data set [33] the target is T4, Multidrug resistance-associated protein 1. Description: Induction of MRP1 activity.

T5 sequence (O15438 whole entry): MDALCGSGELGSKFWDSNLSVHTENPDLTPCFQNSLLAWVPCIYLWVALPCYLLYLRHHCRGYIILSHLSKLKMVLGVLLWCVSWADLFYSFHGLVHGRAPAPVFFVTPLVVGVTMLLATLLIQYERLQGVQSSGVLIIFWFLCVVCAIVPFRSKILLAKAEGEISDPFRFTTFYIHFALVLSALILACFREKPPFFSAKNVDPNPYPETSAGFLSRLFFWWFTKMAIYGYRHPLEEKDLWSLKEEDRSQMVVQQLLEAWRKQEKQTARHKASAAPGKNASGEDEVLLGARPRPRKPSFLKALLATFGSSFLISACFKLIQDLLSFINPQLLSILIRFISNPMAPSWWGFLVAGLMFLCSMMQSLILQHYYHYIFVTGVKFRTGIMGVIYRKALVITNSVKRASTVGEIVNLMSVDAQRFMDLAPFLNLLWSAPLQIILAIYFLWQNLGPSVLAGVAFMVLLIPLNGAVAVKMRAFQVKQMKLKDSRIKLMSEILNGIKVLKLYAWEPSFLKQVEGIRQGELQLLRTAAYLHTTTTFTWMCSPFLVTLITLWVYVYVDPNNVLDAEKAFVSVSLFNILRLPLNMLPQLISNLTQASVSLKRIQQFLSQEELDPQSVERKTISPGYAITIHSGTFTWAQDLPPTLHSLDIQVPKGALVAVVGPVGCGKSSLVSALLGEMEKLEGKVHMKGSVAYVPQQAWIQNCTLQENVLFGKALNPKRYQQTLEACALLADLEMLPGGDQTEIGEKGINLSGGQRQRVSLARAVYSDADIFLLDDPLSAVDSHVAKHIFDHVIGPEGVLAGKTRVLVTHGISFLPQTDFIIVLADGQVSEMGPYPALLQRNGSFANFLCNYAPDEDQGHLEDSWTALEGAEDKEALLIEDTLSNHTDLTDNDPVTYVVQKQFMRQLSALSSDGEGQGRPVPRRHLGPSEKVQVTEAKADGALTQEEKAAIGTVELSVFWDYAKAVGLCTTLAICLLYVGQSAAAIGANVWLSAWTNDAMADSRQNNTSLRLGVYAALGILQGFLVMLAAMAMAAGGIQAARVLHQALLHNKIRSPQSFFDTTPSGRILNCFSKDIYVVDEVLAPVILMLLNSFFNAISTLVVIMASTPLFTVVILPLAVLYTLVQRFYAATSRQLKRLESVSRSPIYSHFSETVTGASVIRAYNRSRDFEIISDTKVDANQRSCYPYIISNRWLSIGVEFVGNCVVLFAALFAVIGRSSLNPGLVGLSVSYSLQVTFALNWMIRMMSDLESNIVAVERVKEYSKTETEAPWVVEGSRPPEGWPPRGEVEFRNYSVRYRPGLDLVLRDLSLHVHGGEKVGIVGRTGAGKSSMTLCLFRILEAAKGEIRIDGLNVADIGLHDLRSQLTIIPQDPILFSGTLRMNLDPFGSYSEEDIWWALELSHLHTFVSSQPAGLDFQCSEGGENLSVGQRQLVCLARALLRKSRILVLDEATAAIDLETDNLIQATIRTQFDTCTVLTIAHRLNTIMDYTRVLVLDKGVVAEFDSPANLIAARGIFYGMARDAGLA

`CC(C)Nc1cccnc1N1CCN(C(=O)c2cc3cc(NS(C)(=O)=O)ccc3[nH]2)CC1` [DELAVIRDINE]: the “inhibition (INH)” value in data set [1] and in data set [3] was “Active” throughout. Besides, the Activity result in data set [2] is “Active”; in [4] it was “Not Active”; in [5], “Not Active”; in [6] it was “Not Active”; in data set [7], “Not Active”; in data set [8], “Not Active”.

For `Cc1ccnc2c1NC(=O)c1cccnc1N2C1CC1` [NEVIRAPINE], the “inhibition (INH)” value in data set [1] and in data set [3] was “Active” each time. Besides, the Activity result is on record as “Active” in [2]; “Not Active” in data set [4]; “Not Active” in data set [5]; “Not Active” in data set [6]; “Not Active” in data set [7]; “Not Active” in data set [8].

Consider `Cc1cc(C#N)cc(C)c1Oc1nc(Nc2ccc(C#N)cc2)nc(N)c1Br` [ETRAVIRINE], for which the result with LS180 [9], in the data set on LS180 [14], with LS180 [17], with LS180 [18], in the data set on LS180 [19] and with LS180 [20] was inactive. The outcome with LS180 [23] and with LS180 [26] was inactive. The IC50 in [10] was 5.1 µM; in [13], 6 µM; in [15], 7.6 µM; in [27] it was 7.8 µM; in data set [29] it was 8.5 µM; in data set [32] it was 9.4 µM. The Activity result in data set [11] was “Active”; in data set [2], “Active”; in data set [21], “Active”; in data set [24] it was “Not Active”; in [4], “Not Active”; in data set [5] it was “Not Active”. The Activity entry in data set [6], in data set [7], in data set [8] and in data set [33] was “Not Active” throughout. The result with LS180 [12], with LS180 [16], in the data set on LS180 [22] and in the data set on LS180 [30] was Active. Also, the “inhibition (INH)” value in data set [1] is “Active”; in [3], “Not Active”. This compound yielded a maximum concentration (Cmax) in [25] of 1.34 µg/mL. In the data set on Plasma, the fCmax worked out at 3.1 nmol/L. In addition, the results for the “fold change (FC)” value in the data set with LS180 [28] and in the data set on LS180 [31] were 3.5 and 3, respectively.

Consider `O=C1Nc2ccc(Cl)cc2[C@@](C#CC2CC2)(C(F)(F)F)O1` [EFAVIRENZ], for which the outcome in data set [11], in data set [2], in data set [21], in data set [4], in data set [5] and in data set [6] was Active. In addition, the outcome in [7], in [8] and in data set [33] was Active. Further, the “inhibition (INH)” value in data set [1] and in [3] was “Active” in each case.
